Measurements taken from US20250197425A1, “2,6,9-TRISUBSTITUTED PURINES” (ASTRAZENECA AB, priority 2022, published 2025).
Where two headings read alike, the source gives them in different places.

Columns and labels:
[1] = target: CDK2:CCNE1 (Homo sapiens (Human), UniProt P24941); experiment: NanoBRET assay in MCF-7 cells, CDK2; format: cell-based; conditions: transfected MCF-7 cells, 2 hours, n = 1 or average
Summary of the method: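 In live MCF-7 cells, compound added followed by NanoBRET TE Tracer K-9 (stock 200 μM) for CDK2, 2 h at 37° C, 5% CO2.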

[2] = target: CDK1:CCNB1 (Homo sapiens (Human), UniProt P06493); experiment: NanoBRET assay in MCF-7 cells, CDK1; format: cell-based; conditions: NanoBRET, transfected MCF-7 cells, 2 hours; n = 1 or average; read-out: CDK1 IC50
Summary of the method: (§1)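 Transiently transfected MCF-7 cells expressing CDK1:CCNB1 or CDK4:CCND1 were treated with compound plus tracer (CDK1: Tracer K-9, 400 μM stock; CDK4: Tracer K-7, 100 μM stock) for 2 h at 37 °C.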

[3] = target: CDK4:CCND1 (Homo sapiens (Human), UniProt P11802); experiment: NanoBRET assay in MCF-7 cells, CDK4; format: cell-based; conditions: NanoBRET, transfected MCF-7 cells, 2 hours; n = 1 or average; read-out: CDK4 IC50
Summary of the method: as §1

[4] = system: NPM phosphorylation (Thr199, CDK2-cyclin E complex); experiment: NPM phosphorylation imaging assay in MCF-7 cells; format: cell-based; conditions: Homo sapiens, MCF7, 2 h, 4N DNA cells
Summary of the method: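 MCF-7 cells were fixed, permeabilised and immunostained, then imaged for phospho-NPM (Thr199), a CDK2-cyclin E site. Analysis was gated on 4N-DNA cells by Hoechst staining. Signals were normalised to controls and fitted for IC50.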

[5] = system: POLR2A Ser2 phosphorylation (CDK9); experiment: POLR2A Ser2 phosphorylation imaging assay in MCF-7 cells; format: cell-based; conditions: Homo sapiens, MCF7, 2 h, read-out: POLR2A Ser2 phosphorylation IC50
Summary of the method: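 MCF-7 cells were fixed, permeabilised and immunostained for POLR2A phospho-Ser2, then imaged by high-content microscopy. Levels were normalised to controls and IC50 values derived.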

[6] = system: OVCAR3 cells; experiment: Cellular proliferation EdU assay, OVCAR3; format: cell-based, human; conditions: Homo sapiens, OVCAR-3, 48 h, EdU assay, two days; read-out: OVCAR3 IC50
Summary of the method: (§2)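 MCF-7 (800 cells/well) and OVCAR3 (1200 cells/well) in RPMI with 10% FBS exposed to compounds for two days at 37 °C.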

[7] = system: OVCAR3 cells; experiment: Cell proliferation CyQUANT assay, OVCAR3; format: cell-based; conditions: Homo sapiens, OVCAR-3, 168 h; CyQUANT cell counts, 7 days
Procedure: (§3) An imaging-based assay was used to investigate changes in cell number in OVCAR3 cells (CCNE1-amplified ovarian cancer cell line) and SKOV3 cells (non-amplified ovarian cancer cell line) treated with test compounds.
(§4) Cells were plated in 384 well plates (Perkin-Elmer 6057300) in RPMI-1640/10% FBS/1× L-Glu at 500 cells per well in 30 μL and incubated with test compound at 37° C. and 5% CO2 for 7 days. Cells were then stained using the CyQuant Direct Cell Proliferation Assay Kit (Thermo Cat #C7026) in accordance with the kit protocol. The stained cells were imaged using an Operetta high content imager to generate cell counts and IC50 values were calculated relative to DMSO controls.

[8] = system: SKOV3 cells; experiment: Cell proliferation CyQUANT assay, SKOV3; format: cell-based; conditions: Homo sapiens, SK-OV-3, 168 h; CyQUANT cell counts, 7 days
Procedure: as §3, §4

[9] = system: MCF-7 cells; experiment: Cellular proliferation EdU assay, MCF-7; format: cell-based; conditions: Homo sapiens, MCF7, 48 h, EdU assay, two days; read-out: MCF-7 IC50
Summary of the method: as §2

[10] = system: OVCAR3 human ovarian cancer xenograft; experiment: Anti-tumor effect in CCNE1 amplified ovarian xenograft model OVCAR3; format: in vivo, mice
Procedure: 15 Million OVCAR3 human ovarian cells were implanted subcutaneously in the right flank of female CB17 SCID mice. Mice were randomized into groups of 8 when average tumor volume reached approximately 160 mm^3. […] Palbociclib was dosed orally once daily.

[11] = system: OVCAR3 cells; experiment: Effect on cell cycle in OVCAR3 cell line (flow cytometry); format: cell-based, human; conditions: 20 to 24 hours, 0.03, 0.1, 0.3, 1, and 3 μM
Procedure: Compounds were tested in the CCNE1-amplified ovarian cell line OVCAR3 to assess their effect on cell cycle phases G1 and S and potential off-target effects on cell cycle phases G2 and M.
OVCAR3 cells were seeded at 60,000 cells per well in 24 well plates, 4 wells per sample, in RPMI with 10% Fetal bovine serum. Test compounds were diluted in 96 well plates in dimethyl sulfoxide (DMSO) and then added to the wells containing the cells. The 24 well plates were placed in an incubator maintained at 37° C. and 5% CO2 and incubated for 20 to 24 hours. The next day an EdU assay was performed following the manufacturer's protocol (Thermo Fisher, C10425 EdU Alexa Fluor 488). Antibody staining was carried out using PE Mouse Anti-Cleaved PARP (BD Biosciences Catalog No. 552933) and 4′,6-diamidino-2-phenylindole (DAPI). Cells were then analyzed by flow cytometry.

[12] = target: 379 non-CDK kinase (or non-CDK kinase-complex) targets; experiment: Kinase profiling (SelectScreen, ThermoFisher); format: biochemical; conditions: compared with Compound 6
Excerpt: Test compounds were profiled against a broad panel of kinases at ThermoFisher Scientific using the SelectScreen Kinase Profiling Services. Each kinase assay used one of the following assay technology protocols: • 1) Z-LYTE™ Screening Protocol and Assay Conditions (Revised 23 Jan. 2018 version) available at http://assets.thermofisher.com/TFS-Assets/BID/Methods-&-Protocols/20180123_SSBK_Customer_Protocol_and_Assay_Conditions.pdf; • 2) Adapta™ Screening Protocol and Assay Conditions (Revised 23 Jan. 2018 version) available at http://assets.thermofisher.com/TFS-Assets/BID/Methods-&-Protocols/20180123_SSBK_Adapta_Customer_Protocol_and_Assay_Conditions.pdf; or • 3) LanthaScreen™ Eu Kinase Binding Assay Screening Protocol and Assay Conditions (Revised 23 Jan. 2018 version) available at http://assets.thermofisher.com/TFS-Assets/BID/Methods-&-Protocols/20180123_SSBK_LanthaScreen_Binding_Customer_Protocol_and_Assay_Co nditions.pdf.

[13] = Aqueous thermodynamic solubility, shake-flask; format: physicochemical; conditions: aqueous phosphate buffer, 25 °C, pH 7.4, aqueous buffer, thermodynamic from solid, phosphate buffer 0.1 M, pH 7.4, 24 hours
Summary of the method: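 Dried compound (after DMSO evaporation) was equilibrated in 0.1 M phosphate buffer pH 7.4 with stirring for 24 h at 25° C. Undissolved material was removed by double centrifugation, and the supernatant was diluted in water and quantified by UPLC/MS/MS.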

[14] = system: 97 targets (GPCRs, ion channels, transporters, enzymes, kinases); experiment: Secondary pharmacology panel (Eurofins CEREP); conditions: compared with Compound 6
Procedure: Secondary pharmacology assays were performed at Eurofins CEREP using standard experimental techniques. Specifically, radioligand binding assays were used to assess the ability of test compounds to interact with G-protein coupled receptors (GPCRs), ion channels, and transmembrane transporters. Assays measuring substrate turnover or phosphorylation by isolated proteins were used for enzyme and kinase targets, allowing direct determination of the mode of action of the tested compounds.

[15] = system: CTG-3298 human CDK4/6 resistant ER+ breast cancer xenograft; experiment: Anti-tumor effect in CTG-3298 CDK4/6 resistant ER+ breast cancer xenograft model; format: in vivo, mice; conditions: Palbociclib at 50 mg/kg orally once daily, 28 days
Procedure: CTG-3298 ER+ breast xenograft tumors were harvested from donor mice and cut into fragments approximately 50 mm^3 in volume and then reimplanted adjacent to the #3 mammary fat pad.
CTG-3298 ER+ Breast PDX fragments were implanted orthotopically adjacent to the #3 mammary fat pad using a 10-gauge trocar in female NSG mice. […] Palbociclib was dosed orally once daily.

[16] = system: CTG-3283 human CDK4/6 resistant ER+ breast cancer xenograft; experiment: Anti-tumor effect in CTG-3283 CDK4/6 resistant ER+ breast cancer xenograft model; format: in vivo, mice; conditions: Palbociclib at 50 mg/kg orally once daily, 28 days
Procedure: CTG-3283 ER+ breast xenograft tumors were harvested from donor mice and cut into fragments approximately 50 mm^3 in volume and then reimplanted adjacent to the #3 mammary fat pad.
CTG-3283 ER+ Breast PDX fragments were implanted orthotopically adjacent to the #3 mammary fat pad using a 10-gauge trocar in female NSG mice. […] Palbociclib was dosed orally once daily.

[17] = system: OVCAR3 cells; experiment: Senescence β-galactosidase assay, OVCAR3; format: cell-based, human; conditions: 5 days, single agent
Procedure: Cells were then stained with a fluorescent dye to detect senescence-associated β-galactosidase (CellEvent Senescence Green detection kit, Thermo #C10850), diluted 1:1000 in the provided buffer, and incubated at 37° C. for 2 hours without CO2 in accordance with the manufacturer's instructions. DNA staining was performed using Hoechst 33342, diluted 1:2500 in PBS, for 15 minutes at room temperature, followed by two washes with PBS. Sample imaging was performed on a PerkinElmer Operetta CLS at lOX magnification to detect Hoechst 33342 (nuclei) and Alexa488 (senescence stain). Image analysis was performed in Harmony 4.1 software (PerkinElmer) to identify cells based on nuclear staining. Mean Alexa488 fluorescence intensity was measured within each cell, and the average was taken across all cells observed within each well. […] Data fitting was performed using Genedata Screener (Genedata AG) and combination effect was assessed using the highest single agent (HSA) model.

CDK1:CCNB1, sequence (P06493 whole entry): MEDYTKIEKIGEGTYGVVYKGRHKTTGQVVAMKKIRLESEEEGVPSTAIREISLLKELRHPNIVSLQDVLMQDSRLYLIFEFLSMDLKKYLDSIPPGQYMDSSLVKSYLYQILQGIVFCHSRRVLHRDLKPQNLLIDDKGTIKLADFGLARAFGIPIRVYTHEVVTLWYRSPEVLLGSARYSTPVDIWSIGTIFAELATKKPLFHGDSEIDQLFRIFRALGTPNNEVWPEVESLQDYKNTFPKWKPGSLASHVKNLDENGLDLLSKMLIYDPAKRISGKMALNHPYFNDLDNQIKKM
CDK1:CCNB1, sequence (P14635 whole entry partner): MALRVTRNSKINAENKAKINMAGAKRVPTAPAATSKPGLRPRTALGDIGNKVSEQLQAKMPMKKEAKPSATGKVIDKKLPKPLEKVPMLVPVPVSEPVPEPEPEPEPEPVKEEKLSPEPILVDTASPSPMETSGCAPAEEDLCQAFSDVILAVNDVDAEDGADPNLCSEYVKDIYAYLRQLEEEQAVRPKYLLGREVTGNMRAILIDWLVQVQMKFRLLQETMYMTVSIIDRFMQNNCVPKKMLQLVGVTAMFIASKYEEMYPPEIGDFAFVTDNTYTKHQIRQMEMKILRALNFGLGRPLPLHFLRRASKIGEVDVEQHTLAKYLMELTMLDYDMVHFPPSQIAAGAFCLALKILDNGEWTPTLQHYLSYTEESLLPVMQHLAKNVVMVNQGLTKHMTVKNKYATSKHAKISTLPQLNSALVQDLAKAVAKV
CDK4:CCND1, sequence (P11802 whole entry): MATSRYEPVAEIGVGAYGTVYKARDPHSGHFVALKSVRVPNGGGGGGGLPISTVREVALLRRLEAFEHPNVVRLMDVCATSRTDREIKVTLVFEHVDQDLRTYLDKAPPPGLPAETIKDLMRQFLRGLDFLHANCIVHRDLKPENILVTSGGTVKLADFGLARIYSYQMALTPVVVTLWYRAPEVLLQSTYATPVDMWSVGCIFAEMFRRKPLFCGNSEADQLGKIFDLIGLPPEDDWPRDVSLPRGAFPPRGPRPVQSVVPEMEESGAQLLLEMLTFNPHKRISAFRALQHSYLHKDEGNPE
CDK4:CCND1, sequence (P24385 whole entry partner): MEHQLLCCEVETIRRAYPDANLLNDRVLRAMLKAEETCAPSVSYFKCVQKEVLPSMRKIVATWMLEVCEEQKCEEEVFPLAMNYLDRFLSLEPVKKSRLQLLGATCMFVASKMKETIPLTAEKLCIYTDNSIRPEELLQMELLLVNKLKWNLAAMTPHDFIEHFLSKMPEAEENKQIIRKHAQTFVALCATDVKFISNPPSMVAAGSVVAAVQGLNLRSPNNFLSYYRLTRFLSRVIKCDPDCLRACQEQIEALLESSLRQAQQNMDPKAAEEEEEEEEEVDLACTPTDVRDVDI

Structure (SMILES) | IC50 ([5]; MCF-7 cells, 2 hours) | IC50 [6] | IC50 [7] | IC50 [8] | IC50 [9] | kinase inhibition profile [12] | further results
O=S(=O)(c1ncc[nH]1)N1C[C@@H](F)[C@H](Nc2nc(N[C@@H](CO)C3CC3)nc3c2ncn3C(F)F)C1 (relative stereo) [Example 61, (R)-2-((6-(((3R*,4R*)-1-((1H-imidazol-2-yl)sulfonyl)-4-fluoropyrrolidin-3-yl)amino)-9-(difluoromethyl)-9H-purin-2-yl)amino)-2-cyclopropylethan-1-ol] | 1.7 µM | 0.053 µM | 0.034 µM | 0.514 µM | – | – | IC50 [1]: 0.005 µM; IC50 [2]: 0.115 µM; IC50 [3]: 0.8 µM; IC50 [4]: 0.017 µM
CC(C)[C@H](CO)Nc1nc(N[C@H]2CCN(S(C)(=O)=O)C2)c2ncn(C(C)C)c2n1 [Compound 20, (R)-2-((9-isopropyl-6-(((S)-1-(methylsulfonyl)pyrrolidin-3-yl)amino)-9H-purin-2-yl)amino)-3-methylbutan-1-ol] | – | 0.224 µM | 0.188 µM | 2.52 µM | 0.665 µM | broadly similar kinase inhibition profiles to Compound 6 | IC50 [5]: > 30 µM; activity and tolerability in xenograft model ([10]; OVCAR3 xenograft): active and well tolerated; effect on cell cycle phase [11]: increased the population of cells in the G0 and G1 phases
CCn1cnc2c(N[C@H]3CCN(S(C)(=O)=O)C3)nc(N[C@@H](CO)C(C)C)nc21 [Example 28, (R)-2-((9-ethyl-6-(((S)-1-(methylsulfonyl)pyrrolidin-3-yl)amino)-9H-purin-2-yl)amino)-3-methylbutan-1-ol] | > 30 µM | 0.186 µM | – | – | 0.699 µM | broadly similar kinase inhibition profiles to Compound 6 | –
CCn1cnc2c(N[C@H]3CCN(S(C)(=O)=O)C3)nc(N[C@@H](CO)C3CC3)nc21 [Example 39, (R)-2-cyclopropyl-2-((9-ethyl-6-(((S)-1-(methylsulfonyl)pyrrolidin-3-yl)amino)-9H-purin-2-yl)amino)ethanol] | > 30 µM | 0.288 µM | – | – | 0.658 µM | broadly similar kinase inhibition profiles to Compound 6 | –
CC[C@H](Nc1nc(N[C@H]2CCN(S(=O)(=O)NC)C2)c2ncn(CC)c2n1)[C@@H](C)O [Example 44, (S)-3-((9-ethyl-2-(((2R,3S)-2-hydroxypentan-3-yl)amino)-9H-purin-6-yl)-amino)-N-methylpyrrolidine-1-sulfonamide] | > 29.1 µM | 0.242 µM | 0.133 µM | 9.15 µM | 0.592 µM | broadly similar kinase inhibition profiles to Compound 6 | –
CC[C@H](Nc1nc(N[C@H]2CCN(S(=O)(=O)c3ccn[nH]3)C2)c2ncn(CC)c2n1)[C@@H](C)O [Example 62, (2R,3S)-3-((6-(((S)-1-((1H-pyrazol-5-yl)sulfonyl)pyrrolidin-3-yl)amino)-9-ethyl-9H-purin-2-yl)amino)pentan-2-ol] | > 30 µM | 0.441 µM | – | – | 1.4 µM | broadly similar kinase inhibition profiles to Compound 6 | solubility at 24 h [13]: > 1000 µM; secondary pharmacology profile [14]: broadly similar secondary pharmacology to Compound 6
CC(=O)c1c(C)c2cnc(Nc3ccc(N4CCNCC4)cn3)nc2n(C2CCCC2)c1=O [Palbociclib, reference compound] | – | – | – | – | – | – | % INHIBITION ([10]; Palbociclib at 50 mg/kg orally once daily, 28 days): 9%; % INHIBITION (end of dosing) [15]: 49%; % INHIBITION (end of dosing) [16]: 46%; induction of senescence [17]: no effect was observed
